# According to patent publication US8071294B2, “Cancer therapy sensitizer” (Dana-Farber Cancer Institute, priority 2003, dated 2011):
# B1: SPARC: Secreted protein acidic and rich in cystein; exogenous SPARC polypeptide (Haematologic Technologies Inc) (protein, UniProt P09486 18-303, looked up)
# SPARC: APQQEALPDETEVVEETVAEVTEVSVGANPVQVEVGEFDDGAEETEEEVVAENPCQNHHCKHGKVCELDENNTPMCVCQDPTSCPAPIGEFEKVCSNDNKTFDSSCHFFATKCTLEGTKKGHKLHLDYIGPCKYIPPCLDSELTEFPLRMRDWLKNVLVTLYERDEDNNLLTEKQKLRVKKIHENEKRLEAGDHPVELLARDFEKNYNMYIFPVHWQFGQLDQHPIDGYLSHTELAPLRAPLIPMEHCTTRFFETCDLDNDKYIALDEWAGCFGIKQKDIDKDLVI
# Experiments:
# MIP/SP cells [1] = assay: Quantitation of apoptosis by Annexin V labeling and flow cytometry, SPARC-overexpressing cells versus control; assay type: cell-based; details: 12-hr exposure, p<0.05
# Protocol: (§1) Quantitation of Apoptosis—For the TUNEL assay, cells were plated onto glass coverslips in 6-well plates at 250,000 cells/plate overnight prior to any induction study 24 hours later. For the assessment of apoptosis following exogenous SPARC (Haematologic Technologies Inc), cells were incubated with SPARC 5 μg/ml for 24 hrs followed by a 12-hr exposure to 5-FU 1000 μM. Cells were then processed for labeling by Apoptosis Detection Kit (Promega) according to the manufacturer's instructions. For quantitation of apoptosis, cells were plated at 250,000 cells/plate in 6-well plates overnight, followed by 12-hr incubation with the following chemotherapy agents: 5-FU 1000 μM, CPT-11 200 μM, cisplatin 100p4, and etoposide 10 μM. Cells were collected by using a nonenzymatic cell dissociation medium (Sigma), washed with phosphate-buffered saline and subsequently stained for Annexin V and propidium iodide using an Apoptosis detection kit (R & D Research) according to the manufacturer's protocol. The proportion of cells labeled with Annexin V and propidium iodide was analyzed by XL Flow Cytometry Analyzer. Data was collected from 100,000 events.
# (§2) Transfection and Selection of Clone—The SPARC cDNA was cloned into pcDNA3.1 expression vector. Transfections were performed with 2.0 μg of the gene/expression vector construct using the polyethylenimine method of Boussiff et al. (1995) with minor modifications (Tai et al., 2002). After transfection, cells were washed with phosphate-buffered saline (PBS, pH 7.4) and maintained in culture medium for 24 hours, followed by a change to an appropriate selection medium containing 1% Zeocin. Cells were selected based on Zeocin resistance and individual colonies and clones from these colonies were then propagated for further verification. Stably transduced clones (MIP/SP) were screened for SPARC mRNA expression by reverse-transcription polymerase chain reaction (RT-PCR) analysis. MIP/SP clones with the highest expression of SPARC mRNA (by RT-PCR) and protein (by Western blot) were selected for subsequent in-vitro and in-vivo studies. Control cell lines used for this study included MIP101 cells stably transduced with pcDNA3.1 empty vector only (MLP/Zeo) and selected based on Zeocin resistance.
# MIP/SP cells [2] = assay: Colony forming (clonogenic) assay, SPARC-overexpressing cells versus control; assay type: cell-based; details: increasing concentrations of chemotherapy (FIG. 21B)
# Protocol: as §2, with “resistance. Colony forming Assay—For clonogenic cell survival studies, MIP101 parental cells and MIP/SP cells were plated at 1,000 cells/plate in 48-well plates and incubated with increasing concentrations of 5-FU (0, 10 μM, 100 μM, 1000 μM), CPT-11 (0, 1 μM, 10 μM, 100 μM), or etoposide (0, 10 μM, 100 μM, 1000 μM) for 4 days. Cells were then washed with PBS and incubated in fresh medium containing the appropriate concentrations of chemotherapy for an additional 7 days. Each well was stained with crystal violet and the colonies with more than 50 cells were counted. The number of colonies formed in the treated group was calculated based on the colonies formed from the control, untreated cells.” for “resistance.”
# MIP/SP tumor xenografts = assay: Tumor xenografts of SPARC-overexpressing cells treated with chemotherapy; assay type: in vivo, NIH nude mice; details: for rate of tumor regression, MIP/SP versus parental MIP101 xenografts: FIG. 14
# Protocol: (§3) Animal Studies—Tumor xenograft animal models were used to assess the effect of SPARC on tumor progression in-vivo. NIH nude mice (6 weeks old, Taconic Laboratories) were engrafted following subcutaneous injection of 2×10^6 cells into the left flank. Treatment regimens were initiated once the average tumor size was 50-75 mm^3 in size. Tumor measurements were performed using a hand-held caliper (Fisher) twice weekly and weight measurements were made concurrently until the completion of the study. Chemotherapy was provided using a 3-week cycle regimen for a total of 6 cycles: 5-FU 25 mg/kg or CPT-11 25 mg/kg intraperitoneal injections three times on week 1 of each cycle, followed by 2 weeks of treatment-free periods. Dosing schedule for SPARC(s) was 100 μL of SPARC(s) three times per week until the completion of the chemotherapy cycle.
# MIP101 tumor xenografts = assay: MIP101 tumor xenograft animal model; assay type: in vivo, NIH nude mice; details: 5-FU alone, n=6
# Protocol: (§4) Concentrated SPARC-containing supernatant [SPARC(s)]—MIP/SP cells were plated at 1×10^6 cells in […] in DMEM (10% FBS, 1% penicillin/streptomycin, 0.1% Zeocin) for 24 hrs. Cells were subsequently washed with PBS twice and incubated in serum-free VP-SFM medium supplemented with glutamine 4 mM (Invitrogen) for 72 hrs. This medium was concentrated from 500 ml to 2 ml using Centricon Filter units (Millipore) at 4° C. All media collected and processed by this method were used for subsequent animal studies.
# as §3
# parental MIP101 cells = assay: TUNEL assay of apoptosis in parental MIP101 cells; assay type: cell-based
# Protocol: (§5) Cell Culture—The colorectal cell line MIP-101 was maintained in Dulbecco's modified Eagle's medium (DMEM) (Invitrogen) supplemented with 10% fetal bovine serum (FBS) (Invitrogen), 1% penicillin/streptomycin (Invitrogen) at 37° C. and 5% CO2. Resistant MIP101 cells were developed following long-term incubation with incremental concentrations of 5-fluorouracil (5-FU), irinotecan (CPT-11), cisplatin (CIS), and etoposide (ETO). Stable MIP101 cells transduced with SPARC (MIP/SP) were maintained in DMEM supplemented with 10% FBS, 1% penicillin/streptomycin, and 0.1% Zeocin at 37° C. and 5% CO2.
# as §1, with “For the assessment of apoptosis following exogenous SPARC (Haematologic Technologies Inc), cells were incubated with SPARC 5 μg/ml for 24 hrs followed by a 12-hr exposure to 5-FU 1000 μM.” left out
# MIP/5FU tumor xenografts = assay: MIP/5FU tumor xenograft animal model; assay type: in vivo, NIH nude mice; details: 5-FU alone (FIG. 18), n=6
# Protocol: as §4, §3
# [3] = tested on: MIP101 cells resistant to 5-FU (MIP-5FUR, MIP/5FU); assay: TUNEL assay of apoptosis in 5-FU resistant MIP101 cells; assay type: cell-based
# Protocol: as §5
# as §1, with “For the assessment of apoptosis following exogenous SPARC (Haematologic Technologies Inc), cells were incubated with SPARC 5 μg/ml for 24 hrs followed by a 12-hr exposure to 5-FU 1000 μM.” left out
molecule,measurement,setting,value
COc1cc([C@@H]2c3cc4c(cc3[C@@H](O[C@@H]3O[C@@H]5CO[C@@H](C)O[C@H]5[C@H](O)[C@H]3O)[C@H]3COC(=O)[C@H]23)OCO4)cc(OC)c1O [etoposide],"cells undergoing apoptosis, MIP/SP versus MIP/Zeo",MIP/SP cells [1],Greater number
same,"cell colonies, MIP/SP versus MIP/Zeo",MIP/SP cells [2],fewer cell colonies of MIP/SP cells
"O=c1[nH]cc(F)c(=O)[nH]1 [5-FU, 5-fluorouracil]","rate of tumor regression, MIP/SP versus parental MIP101 xenografts",MIP/SP tumor xenografts,more rapid rate of tumor regression
same,remission of MIP-SPARC xenograft,"MIP/SP tumor xenografts; representative animals, 2 cycles of 5-FU, by 23 days post-transplant",complete remission
same,complete tumor regression,MIP101 tumor xenografts; by 42 days post-treatment (FIG. 17),not observed
same,complete tumor regression,MIP101 tumor xenografts; by 84 days post-treatment (FIG. 16),not observed
same,apoptosis (TUNEL),"parental MIP101 cells; parental sensitive MIP101 cells, 5-FU at a similar concentration (500 uM)","a significant number of cells from the parental, sensitive cell line underwent apoptosis"
same,apoptosis (TUNEL stain),"parental MIP101 cells; sensitive MIP101 cells, 5-FU 1000 uM (FIG. 21A)",positively stained cells
same,"cells undergoing apoptosis, MIP/SP versus MIP/Zeo",MIP/SP cells [1],Greater number
same,tumor growth,MIP/5FU tumor xenografts,rapid tumor growth continued
same,apoptosis (TUNEL),"[3]; MIP-5FUR cells, 5-FU 500 uM",could not be triggered to undergo apoptosis
same,apoptosis (TUNEL stain),"[3]; resistant phenotype (MIP/5FU), 5-FU 1000 uM (FIG. 21A)",lack of apoptosis
same,"cell colonies, MIP/SP versus MIP/Zeo",MIP/SP cells [2],fewer cell colonies of MIP/SP cells
N.N.[Cl][Pt][Cl] [cisplatin],"cells undergoing apoptosis, MIP/SP versus MIP/Zeo",MIP/SP cells [1],Greater number
"CCc1c2c(nc3ccc(OC(=O)N4CCC(N5CCCCC5)CC4)cc13)-c1cc3c(c(=O)n1C2)COC(=O)[C@]3(O)CC [CPT-11, irinotecan]","rate of tumor regression, MIP/SP versus parental MIP101 xenografts",MIP/SP tumor xenografts,more rapid rate of tumor regression
same,tumor size versus parental MIP101 xenograft,"MIP/SP tumor xenografts; representative animals, 2 cycles of CPT-11",significantly smaller tumors
same,"cells undergoing apoptosis, MIP/SP versus MIP/Zeo",MIP/SP cells [1],Greater number
same,"cell colonies, MIP/SP versus MIP/Zeo",MIP/SP cells [2],fewer cell colonies of MIP/SP cells
B1,"apoptosis (TUNEL), SPARC alone","parental MIP101 cells; parental MIP 101 cells, exogenous SPARC alone without chemotherapy",did not induce apoptosis
same,sensitivity to 5-FU (TUNEL-positive cells),"[3]; MIP/5FU cells, 24 hr SPARC 5 ug/ml, then 5-FU 1000 uM (FIG. 21A)",once again became sensitive to 5-FU
same,"apoptosis (TUNEL), SPARC alone","[3]; resistant cells, exogenous SPARC alone without chemotherapy",did not induce apoptosis
same,reversal of resistant phenotype (apoptotic cells by TUNEL),"[3]; resistant clones, SPARC 24-hr incubation followed by 12-hr exposure to a chemotherapeutic agent",sufficient in reversing the resistant phenotype
